No end group written: not given here.
What was measured:
[1] = test system: amyloid anti-aggregating antibody; conditions: Frenkel et al. 1998, ELISA, read-out: IC50, competitive inhibition, anti-aggregating antibody*; cited from earlier work
[2] = test system: serum antibody raised against f88-EFRH; conditions: ELISA, read-out: IC50, competitive inhibition, MICE SERUM; cited from earlier work
[3] = test system: Balb/c mice; test: Immunization of Balb/c mice with MAP conjugated peptides, IgG titer by ELISA; assay type: in vivo; conditions: injection every two weeks with Freund's adjuvant, compared among 3 MAP peptides, FIG. 3
Experimental: 3 groups of Balb/c mice were injected with 3 different MAP (octa-branched) conjugated peptides: ISEVKMDA (residues 1-8 of SEQ ID NO:1, where residue 6 is Met), VKMDAEFRH (SEQ ID NO:5) and ISEVKLDA (residues 1-8 of SEQ ID NO:1, where residue 6 is Leu). The stock solution (2 mg/ml) was prepared as follows: 1000 μl of double distilled water (DDW), 665 μl of Freund's adjuvant (Complete Freund's adjuvant on first injection and Incomplete Freund's adjuvant on subsequent injections) and 335 μl of peptide stock solution. 300 μl of the vaccination solution (immunizing composition) was injected into each mouse every two weeks after initial injection.
96-well ELISA. plates were coated with 50 μl/well peptide stock solution at dilution of 1:500 in coating buffer (0.1M Na2CO3, pH 9.6) and incubated overnight at 4° C. The plates were washed with 2×PBS (0.05% TWEEN) and 2×PBS, blocked with 3% milk/PBS 180 μl/well and incubated for 1.5 hr at 37° C. Serum dilutions in 1% milk/PBS 50 μl/well were incubated for 1 hr at 37° C., then washed again with 50 μl/well α-mouse-IgG (H+L)HRP conjugated with dilution of 1:5000 in 1% milk/PBS incubated for 1 hr at 37° C. Additional washings contained PBS (0.05% TWEEN) and finally PBS. Reaction was done with 50 μl/well of 15 ml 0.05M citrate buffer with 30 mg OPD and 5 μl of 30% H2O2. […]

| Substance | IC50 [1] [µM] | IC50 [2] [µM] | immune response after immunization [3] |
| --- | --- | --- | --- |
| DAEFRHDSG [residues 1-9 of Aβ] | 1 | 5 | – |
| FRH (Amyloid-beta protein 40; UniProt P05067 675-677, looked up, fragment) [residues 4-6 of Aβ] | 3000 | ~1000 | – |
| DAEFRHD [residues 1-7 of Aβ] | 0.9 | 5 | – |
| MAP-ISEVKLDA: octavalent multiple antigenic peptide with ISEVKLDA (residues 1-8 of SEQ ID NO:1, residue 6 Leu), Swedish mutation β-secretase cleavage site epitope (also: octavalent multiple antigenic peptide on MAP core; listed as Homo sapiens) | – | – | highest immune response |
| DAEFRH [residues 1-6 of Aβ] | 0.8 | 3 | – |
| Aβ(1-40): full length Aβ-peptide (1-40) | 0.8 | 3 | – |
| EFRH [residues 3-6 of Aβ] | 3 | 6 | – |

— patent publication US8613928B2, “Immunizing composition and method for inducing an immune response against the β-secretase cleavage site of amyloid precursor protein” (Ramot at Tel-Aviv University Ltd., priority 2002, dated 2013)
